The NIST ThermoML archive (doi:10.1021/je100734t)

Test: xn = mol fraction of the nth substance listed
Settings: 101 kPa, Liquid; for speed of sound: Pulse-echo method

CCCCCCCCCCO [decan-1-ol] + Cc1ccc(C)cc1
Settings | mass density, 293.15 K [kg/m3] | mass density, 303.15 K [kg/m3] | mass density, 313.15 K [kg/m3] | speed of sound, 293.15 K [m/s] | speed of sound, 303.15 K [m/s] | speed of sound, 313.15 K [m/s]
x2 = 0 | 829.98 | 823.1 | 816.27 | 1396 | 1362 | 1329
x2 = 0.0806 | 831.76 | 824.74 | 817.76 | 1391 | 1356 | 1322
x2 = 0.1731 | 833.82 | 826.66 | 819.54 | 1385 | 1349 | 1314
x2 = 0.2506 | 835.6 | 828.33 | 821.08 | 1378 | 1342 | 1307
x2 = 0.3197 | 837.25 | 829.88 | 822.5 | 1373 | 1336 | 1300
x2 = 0.3693 | 838.49 | 831.04 | 823.57 | 1368 | 1331 | 1295
x2 = 0.4336 | 840.17 | 832.6 | 825.02 | 1362 | 1325 | 1289
x2 = 0.4929 | 841.79 | 834.12 | 826.43 | 1357 | 1320 | 1283
x2 = 0.5771 | 844.26 | 836.42 | 828.58 | 1350 | 1312 | 1275
x2 = 0.662 | 846.98 | 838.96 | 830.98 | 1344 | 1305 | 1267
x2 = 0.7265 | 849.2 | 841.06 | 832.94 | 1340 | 1300 | 1262
x2 = 0.7763 | 851.04 | 842.8 | 834.58 | 1337 | 1297 | 1258
x2 = 0.8293 | 853.13 | 844.77 | 836.44 | 1335 | 1294 | 1255
x2 = 0.8891 | 855.65 | 847.2 | 838.71 | 1333 | 1292 | 1252
x2 = 0.9369 | 857.84 | 849.27 | 840.68 | 1332 | 1290 | 1250

CCCCCCCCCO [nonan-1-ol] + Cc1ccccc1C
Settings | mass density, 293.15 K [kg/m3] | mass density, 303.15 K [kg/m3] | mass density, 313.15 K [kg/m3] | speed of sound, 293.15 K [m/s] | speed of sound, 303.15 K [m/s] | speed of sound, 313.15 K [m/s]
x2 = 0 | 827.7 | 820.82 | 813.88 | 1381 | 1347 | 1314
x2 = 0.0653 | 830.13 | 823.15 | 816.1 | 1380 | 1345 | 1312
x2 = 0.136 | 832.82 | 825.73 | 818.58 | 1378 | 1343 | 1309
x2 = 0.1773 | 834.44 | 827.29 | 820.07 | 1377 | 1341 | 1307
x2 = 0.2281 | 836.48 | 829.25 | 821.95 | 1375 | 1339 | 1304
x2 = 0.2834 | 838.77 | 831.45 | 824.06 | 1373 | 1336 | 1301
x2 = 0.3463 | 841.46 | 834.04 | 826.55 | 1370 | 1334 | 1298
x2 = 0.4203 | 844.78 | 837.24 | 829.63 | 1368 | 1330 | 1295
x2 = 0.4761 | 847.41 | 839.78 | 832.07 | 1366 | 1328 | 1292
x2 = 0.5478 | 850.96 | 843.21 | 835.38 | 1364 | 1326 | 1289
x2 = 0.6327 | 855.43 | 847.54 | 839.57 | 1362 | 1323 | 1286
x2 = 0.7121 | 859.93 | 851.92 | 843.83 | 1361 | 1322 | 1285
x2 = 0.7974 | 865.14 | 856.99 | 848.77 | 1361 | 1322 | 1284
x2 = 0.8695 | 869.88 | 861.63 | 853.31 | 1363 | 1322 | 1284
x2 = 0.9287 | 874.08 | 865.73 | 857.34 | 1365 | 1324 | 1285

CCCCCCCCCO [nonan-1-ol] + Cc1cccc(C)c1
Settings | mass density, 293.15 K [kg/m3] | mass density, 303.15 K [kg/m3] | mass density, 313.15 K [kg/m3] | speed of sound, 293.15 K [m/s] | speed of sound, 303.15 K [m/s] | speed of sound, 313.15 K [m/s]
x2 = 0 | 827.7 | 820.82 | 813.88 | 1381 | 1347 | 1314
x2 = 0.066 | 829.52 | 822.53 | 815.47 | 1378 | 1343 | 1310
x2 = 0.127 | 831.23 | 824.14 | 816.98 | 1375 | 1340 | 1306
x2 = 0.1739 | 832.57 | 825.39 | 818.16 | 1373 | 1337 | 1302
x2 = 0.2461 | 834.67 | 827.36 | 820.01 | 1368 | 1332 | 1297
x2 = 0.2913 | 836.03 | 828.63 | 821.21 | 1365 | 1328 | 1293
x2 = 0.3635 | 838.25 | 830.72 | 823.17 | 1361 | 1323 | 1287
x2 = 0.4422 | 840.77 | 833.1 | 825.42 | 1355 | 1317 | 1281
x2 = 0.4872 | 842.27 | 834.52 | 826.76 | 1353 | 1314 | 1277
x2 = 0.5648 | 844.95 | 837.08 | 829.18 | 1348 | 1309 | 1272
x2 = 0.6251 | 847.15 | 839.19 | 831.18 | 1345 | 1305 | 1268
x2 = 0.6873 | 849.54 | 841.47 | 833.35 | 1342 | 1302 | 1264
x2 = 0.7713 | 853 | 844.78 | 836.5 | 1339 | 1299 | 1260
x2 = 0.8507 | 856.56 | 848.19 | 839.76 | 1338 | 1298 | 1258
x2 = 0.9284 | 860.34 | 851.84 | 843.28 | 1339 | 1298 | 1257
